Holding throughout (type): in vivo
The test system of test [1] is Swiss albino mice and Guinea pigs. The test can be described thus: Plasma triglyceride and total cholesterol lowering activity in Swiss albino mice and Guinea pigs. Particulars: species (Swiss albino mice or Guinea pigs) not given. On the procedure: Male Swiss albino mice (SAM) and male Guinea pigs were obtained from NIN and housed in DRF animal house. All these animals were maintained under 12 hour light and dark cycle at 25±1° C. Animals were given standard laboratory chow (NIN, Hyderabad, India) and water, ad libitum. SAM of 20-25 g body weight range and Guinea pigs of 500-700 g body weight range were used (Oliver, P., Plancke, M. O., Marzin, D., Clavey, V., Sauzieres, J and Fruchart, J. C. Effects of fenofibrate, gemfibrozil and nicotinic acid on plasma lipoprotein levels in normal and hyperlipidemic mice. Atherosclerosis. 1988. 70: 107-114).
The test compounds were administered orally to Swiss albino mice at 0.3 to 30 mg/kg/day dose for 6 days. Control mice were treated with vehicle (0.25% Carboxymethylcellulose; dose 10 ml/kg). The test compounds were administered orally to Guinea pigs at 0.3 to 30 mg/kg/day dose for 6 days. Control animals were treated with vehicle (0.25% Carboxymethylcellulose; dose 5 ml/kg).
The blood samples were collected in fed state 1 hour after drug administration on 0 and 6 day of treatment. The blood was collected from the retro-orbital sinus through heparinised capillary in EDTA containing tubes. After centrifugation, plasma sample was separated for triglyceride and total cholesterol (Wieland, 0. Methods of Enzymatic analysis. Bergermeyer, H. O., Ed., 1963. 211-214; Trinder, P. Ann. Clin. Biochem. 1969. 6: 24-27). Measurement of plasma triglyceride, total cholesterol and HDL were done using commercial kits (Dr. Reddy's Diagnostic Division, Hyderabad, India).
(§1) Formulae for Calculation: • 1. Percent reduction in Blood sugar/triglycerides/total cholesterol/body weight were calculated according to the formula: • Percent reduction [formula] OC=Zero day control group value OT=Zero day treated group value TC=Test day control group value TT=Test day treated group value

Test [2] has as its system C57BL/KsJ-db/db mice. As to the kind of experiment: Blood sugar and triglycerides lowering activity in db/db mice (genetic model).
Text: Mutation in colonies of laboratory animals and different sensitivities to dietary regimens have made the development of animal models with non-insulin dependent diabetes and hyperlipidemia associated with obesity and insulin resistance possible. Genetic models such as db/db and ob/ob (Diabetes, (1982) 31(1): 1-6) mice and zucker fa/fa rats have been developed by the various laboratories for understanding the pathophysiology of disease and testing the efficacy of new antidiabetic compounds (Diabetes, (1983) 32: 830-838; Annu. Rep. Sankyo Res. Lab. (1994). 46 : 1-57). The homozygous animals, C57 BL/KsJ-db/db mice developed by Jackson Laboratory, US, are obese, hyperglycemic, hyperinsulinemic and insulin resistant (J. Clin. Invest., (1990) 85: 962-967), whereas heterozygous are lean and normoglycemic. In db/db model, mouse progressively develops insulinopenia with age, a feature commonly observed in late stages of human type II diabetes when blood sugar levels are insufficiently controlled. The state of pancreas and its course vary according to the models. Since this model resembles that of type II diabetes mellitus, the compounds of the present invention were tested for blood sugar and triglycerides lowering activities.
Male C57BL/KsJ-db/db mice of 8 to 14 weeks age, having body weight range of 35 to 60 grams, bred at Dr. Reddy's Research Foundation (DRF)animal house, were used in the experiment. The mice were provided with standard feed (National Institute of Nutrition (NIN), Hyderabad, India) and acidified water, ad libitum. The animals having more than 350 mg/dl blood sugar were used for testing. The number of animals in each group was 4.
Test compounds were suspended on 0.25% carboxymethyl cellulose and administered to test group at a dose of 0.1 mg to 30 mg/kg through oral gavage daily for 6 days. The control group received vehicle (dose 10 ml/kg). On 6th day the blood samples were collected one hour after administration of test compounds/vehicle for assessing the biological activity.
The random blood sugar and triglyceride levels were measured by collecting blood (100 μl) through orbital sinus, using heparinised capillary in tubes containing EDTA which was centrifuged to obtain plasma. The plasma glucose and triglyceride levels were measured spectrometrically, by glucose oxidase and glycerol-3-PO4 oxidase/peroxidase enzyme (Dr. Reddy's Lab. Diagnostic Division Kits, Hyderabad, India) methods respectively.
The blood sugar and triglycerides lowering activities of the test compound was calculated according to the formula.
as §1

For test [3], the system named is hypercholesterolemic Sprague Dawley rats. The test can be described thus: Plasma triglyceride and cholesterol lowering activity in hypercholesterolemic rat models. The conditions noted are these: 1 mg/kg orally for 3 days; for HDL (%) ↑: increase; for Total Cholesterol (%) ↓ / Triglyceride (%) ↓ / LDL (%) ↓ / VLDL (%) ↓: reduction; for LDL (%) ↓: LDL calculated from total cholesterol; for LDL (%) ↓ / VLDL (%) ↓: HDL and triglyceride; for VLDL (%) ↓: VLDL calculated from total cholesterol. Here is the method: Male Sprague Dawley rats (NIN stock) were bred in DRF animal house. Animals were maintained under 12 hour light and dark cycle at 25±1° C. Rats of 180 -200 gram body weight range were used for the experiment. Animals were made hypercholesterolemic by feeding 2% cholesterol and 1% sodium cholate mixed with standard laboratory chow [National Institute of Nutrition (NIN), Hyderabad, India] for 6 days. Throughout the experimental period the animals were maintained on the same diet (Petit, D., Bonnefis, M. T., Rey, C and Infante, R. Effects of ciprofibrate on liver lipids and lipoprotein synthesis in normo- and hyperlipidemic rats. Atherosclerosis. 1988. 74:215-225).
The test compounds were administered orally at a dose 0.1 to 30 mg/kg/day for 3 days. Control group was treated with vehicle alone (0.25% Carboxymethylcellulose; dose 10 ml/kg).
The blood samples were collected in fed state 1 hour after drug administration on 0 and 3 day of compound treatment. The blood was collected from the retro-orbital sinus through heparinised capillary in EDTA containing tubes. After centrifugation, plasma sample was separated for total cholesterol, HDL and triglyceride estimations. Measurement of plasma triglyceride, total cholesterol and HDL were done using commercial kits (Dr. Reddy's Laboratory, Diagnostic Division, India). LDL and VLDL cholesterol were calculated from the data obtained for total cholesterol, HDL and triglyceride. The reduction of various parameters examined are calculated according to the formula.
as §1
2. LDL and VLDL cholesterol levels were calculated according to the formula: [formula] [formula]

For test [4], the system named is cholesterol fed Syrian Hamsters. As to the kind of experiment: Body weight reducing effect in cholesterol fed hamsters. The conditions noted are these: 10 mg/kg/day orally for 15 days. Here is the method:
Male Syrian Hamsters were procured from NIN, Hyderabad, India. Animals were housed at DRF animal house under 12 hour light and dark cycle at 25±1° C. with free access to food and water. Animals were maintained with 1% cholesterol containing standard laboratory chow (NIN) from the day of treatment.
The test compounds were administered orally at 1 to 30 mg/kg/day dose for 15 days. Control group animals were treated with vehicle (Mill Q water, dose 10 ml/kg/day). Body weights were measured on every 3rd day.
as §1

Where [5] appears, read: 3 mg/kg oral gavage daily for 6 days.
[6] abbreviates: 10 mg/kg oral gavage daily for 6 days.

Turning to `CCOC(Cc1ccc(OCCN2CCOc3ccccc32)cc1)C(N)=O` (racemic) [Example 33, 3-[4-[2-(2,3-Dihydro-1,4-benzoxazin-4-yl)ethoxy]phenyl]-2-ethoxypropanamide], the “Triglyceride Lowering (%)” value in test [1] (3 mg/kg orally for 6 days) amounted to 55%.
Consider `CCOC(Cc1ccc(OCCN2C(=O)COc3ccccc32)cc1)C(=O)O` (racemic) [Example 41, 3-[4-[2-(3-Oxo-2H-1,4-benzoxazin-4-yl)ethoxy]phenyl]-2-ethoxypropanoic acid], for which the results for the “Triglyceride Lowering (%)” value in test [1] (10 mg/kg orally for 6 days) and in test [2] (setting [5]) were 54% and 27%, respectively. Further, the “Reduction in Blood Glucose Level (%)” value in test [2] (setting [5]) is reported as 53%.
Take `CCOC(Cc1ccc2cc(OCCN3CCSc4ccccc43)ccc2c1)C(=O)O` (racemic) [Example 43, 3-[6-[2-(2,3-Dihydro-1,4-benzothiazin-4-yl)ethoxy]naphthyl]-2-ethoxypropanoic acid]: in test [1] (3 mg/kg orally for 6 days), the “Triglyceride Lowering (%)” value stood at 49%.
Take `CCOC(Cc1ccc(OCCN2CCOc3ccccc32)cc1)C(=O)[O-].[Na+]` (stereo not shown) [Example 27, 3-[4-[2-(2,3-Dihydro-1,4-benzoxazin-4-yl)ethoxy]phenyl]-2-ethoxypropanoic acid, sodium salt]: in test [3], the “HDL (%) ↑” value was 37%, the “Total Cholesterol (%) ↓” value was 57%, the “Triglyceride (%) ↓” value worked out at 43% and the “LDL (%) ↓” value was 58%. Moreover, in test [3], the “VLDL (%) ↓” value is given as 79%. For the same molecule, the “Body weight Reduction (%)” value in test [4] worked out at 12%.
As for `CCOC(Cc1ccc(OCCN2CCSc3ccccc32)cc1)C(=O)[O-].[Na+]` (stereo not shown) [Example 30, 3-[4-[2-(2,3-Dihydro-1,4-benzothiazin-4-yl)ethoxy]phenyl]-2-ethoxypropanoic acid, sodium salt], in test [4], the “Body weight Reduction (%)” value worked out at 18%.
`CCOC(Cc1ccc2cc(OCCN3CCSc4ccccc43)ccc2c1)C(=O)[O-].[Na+]` (stereo not shown) [Example 44]: in test [2] (setting [6]), the “Reduction in Blood Glucose Level (%)” value was 47% and the “Triglyceride Lowering (%)” value is on record as 74%. In test [3], the “HDL (%) ↑” value is 46%, the “Total Cholesterol (%) ↓” value is recorded as 42%, the “Triglyceride (%) ↓” value came out at 50% and the “LDL (%) ↓” value was 44%. In addition, the “VLDL (%) ↓” value in test [3] was 53%.
Regarding `CCCCOC(Cc1ccc(OCCN2CCOc3ccccc32)cc1)C(=O)[O-].[Na+]` (stereo not shown) [Example 50, 3-[4-[2-(2,3-Dihydro-1,4-benzoxazin-4-yl)ethoxy]phenyl]-2-butoxypropanoic acid, sodium salt], in test [2] (setting [5]), the “Reduction in Blood Glucose Level (%)” value was 45% and the “Triglyceride Lowering (%)” value is reported as 23%.
As to `CCOC(Cc1ccc(OCC2CN(Cc3ccccc3)c3ccccc3O2)cc1)C(=O)[O-].[Na+]` (stereo not shown) [Example 63, 3-[4-(4-Benzyl-3,4-dihydro-2H-1,4-benzoxazin-2-yl)methoxyphenyl]-2-ethoxypropanoic acid, sodium salt], in test [1] (3 mg/kg orally for 6 days), the “Triglyceride Lowering (%)” value came to 57%.
